According to patent US11566212B2, “Integrated microfluidic system for culturing and testing” (priority 2016, dated 2023):
Where two headings read alike, the source gives them in different places.

Assays:
[1] = not given; remark: listed apart in the source
[2] = Franz cells, silicone membrane soaked in isopropyl myristate
[3] = Diffusion chips, silicone membrane soaked in isopropyl myristate

Cn1c(=O)c2c(ncn2C)n(C)c1=O [caffeine]
Steady state flux (24 h): 13 μg/cm^2 h
Dm (diffusion coefficient) [2]: 1.3 10^−3 cm^2/h
tlag (lag time) [2]: 0.52 h
Steady state flux ([1]; 24 h): 13 μg/cm^2 h
Dm (diffusion coefficient) [1, 3]: 1.8 10^−3 cm^2/h
tlag (lag time) [1, 3]: 0.37 h
